Laboratory results reported in PubChem BioAssay (NCI).
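Protocol summary: plate cells (96-well), add compound at 5 concentrations, incubate 48 h, interpolate endpoints linearly. TGI is the concentration that stops growth completely.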

Tests used:
Assay in all cases: DTP human tumour cell line panel, 48 h
RXF 393 renal = test system: RXF 393 renal
OVCAR-5 ovarian = test system: OVCAR-5 ovarian
MDA-N = test system: MDA-N
CAKI-1 renal = test system: CAKI-1 renal
HCC-2998 colon = test system: HCC-2998 colon
MDA-MB-435 = test system: MDA-MB-435
EKVX NSCLC = test system: EKVX NSCLC
SK-MEL-28 melanoma = test system: SK-MEL-28 melanoma
SF-295 CNS = test system: SF-295 CNS
HOP-92 NSCLC = test system: HOP-92 NSCLC
NCI-H460 lung = test system: NCI-H460 lung
RPMI-8226 leukemia = test system: RPMI-8226 leukemia
BT-549 breast = test system: BT-549 breast
HT29 colon = test system: HT29 colon
UACC-62 melanoma = test system: UACC-62 melanoma
OVCAR-8 ovarian = test system: OVCAR-8 ovarian
NCI-H23 lung = test system: NCI-H23 lung
K-562 leukemia = test system: K-562 leukemia
MCF7 breast = test system: MCF7 breast

SMILES	TGI (RXF 393 renal) [µM]	TGI (OVCAR-5 ovarian) [µM]	TGI (MDA-N) [µM]	TGI (CAKI-1 renal) [µM]	TGI (HCC-2998 colon) [µM]	TGI (MDA-MB-435) [µM]	TGI (EKVX NSCLC) [µM]	TGI (SK-MEL-28 melanoma) [µM]	TGI (SF-295 CNS) [µM]	TGI (HOP-92 NSCLC) [µM]	TGI (NCI-H460 lung) [µM]	TGI (RPMI-8226 leukemia) [µM]	TGI (BT-549 breast) [µM]	TGI (HT29 colon) [µM]	TGI (UACC-62 melanoma) [µM]	TGI (OVCAR-8 ovarian) [µM]	TGI (NCI-H23 lung) [µM]	TGI (K-562 leukemia) [µM]	TGI (MCF7 breast) [µM]
O=C1NC(=O)C(Cc2ccccc2)(c2cccnc2)N1 (stereo not given)	> 100	> 100	> 100	> 100	> 100	> 100	> 100	> 100	> 100	> 100	> 100	> 100	> 100	> 100	> 100	> 100	> 100	> 100	> 100
O=C(N/N=C/c1ccc2c(c1)OCO2)Nc1ccccc1Cl	12.2	> 100	0.501	> 100	5.14	1.33	> 60.5	> 100	6.84	> 40	16.6	> 56.2	75.7	> 49.1	> 83.1	> 43.1	> 43.8	> 100	> 100
COc1ccc2cc(CNCCCCCCCCCCCCNCc3ccc4cc(OC)ccc4c3)ccc2c1	28.7	> 57.1	> 54.4	47.3	39.1	> 55.5	37.6	> 56	42.2	47.5	35.8	42.6	33	23	38.4	32.4	34.3	> 50	31.9
COc1ccc(OC)c2sc(N3C(=O)/C(=C/c4ccc(Cl)cc4)N=C3c3ccccc3)nc12	> 100	> 100	> 100	> 100	> 100	> 100	> 100	> 100	> 100	> 100	> 100	> 100	> 100	> 100	> 100	> 100	> 100	86.6	79.2
O=c1[nH]c(C23CC4CC(CC(C4)C2)C3)cc2c1c(=O)oc1ccccc12	7.71	22.8	> 59.3	7.03	19.6	> 60.5	3.99	20.6	12.9	6.48	11.6	15.1	38.2	15.7	> 49.8	15	23	> 35.8	> 41
COc1cc(OCc2nc3ccccc3n3cccc23)cc(OC)c1OC	> 100	> 100	> 100	> 100	> 88.3	> 52.4	> 62.7	> 90.5	> 100	> 100	> 100	14.6	> 100	> 100	> 72.3	> 100	> 100	23.8	37.6
O=C(c1ccccc1)c1ccc2nc3n(c2c1)C(c1c(F)cccc1F)SC3 (stereo not given)	72.8	> 91.1	3.43	44.4	> 52.5	3.96	> 48.4	> 70.5	13.8	> 100	52.2	> 100	> 100	39.5	21.3	98.4	> 61.7	> 100	50.5
CNc1c2cccc(C)c2nc2c(C(=O)NCCN(C)C)cccc12	0.413	1.1	0.328	0.23	0.192	0.34	1.33	1.17	0.952	0.522	0.206	0.57	2.8	0.138	0.402	0.297	0.286	> 100	0.96
CC1(C)CN=C(c2ccc3c(c2)Cc2cc(C4=NCC(C)(C)N4)ccc2-3)N1	> 100	> 100	> 100	> 100	74.1	98.9	> 100	> 100	> 100	> 100	> 100	65.8	> 100	> 100	69.5	> 100	> 100	90.4	86.5
CC(C)=CCC[C@@H](C)C1=C(O)C(O)C(C)=C2N=C(c3ccccc3)C(=O)OC21 (stereo not given in full)	> 17.1	> 25	> 25	9.89	21.2	> 25	> 25	> 25	> 10.9	> 7.8	> 17	> 7.03	> 25	18.5	5.95	> 11	6.15	> 25	> 25
O=C1C(=O)c2c(oc(=O)c3ccccc23)-c2ccccc21	> 25	> 25	> 25	> 25	> 25	20.9	> 25	> 25	> 25	> 25	> 25	> 25	> 25	> 25	> 25	> 25	> 25	> 25	> 25
COc1ccc(/C=C2\CCC(CNc3cc(C)on3)C2=O)cc1 (stereo not given)	> 21.5	> 100	> 100	> 100	> 100	> 100	> 100	> 100	> 100	> 100	> 100	> 100	> 100	> 100	> 100	> 100	> 100	> 100	> 100
CC(C)(C)[Si](C)(C)O[C@@H](C(=O)OC1C=CCCC1)[C@@H](NC(=O)c1ccccc1)c1ccccc1 (stereo not given in full)	34.3	> 100	> 100	> 100	44.4	> 100	> 100	> 100	65.1	99.5	42.2	9.89	> 100	49.5	> 100	> 100	> 100	37	59.9
COc1cccc(OC/C(N=Cc2cccnc2)=N/NC(=O)c2ccncc2)c1	> 100	> 100	> 100	> 100	> 100	> 100	> 100	> 100	> 100	> 100	> 100	> 100	> 100	> 100	> 100	> 100	> 100	> 100	> 100
CCOC(=O)C1=CN/C(=C(/C)C(=O)OC)SC1C(=O)OCC (stereo not given)	> 100	> 100	> 100	> 100	> 100	> 100	> 100	> 100	> 100	> 100	> 100	> 100	> 100	> 100	> 100	> 100	> 100	> 31.6	> 100
CN(C)C=C1C(=O)c2c(Br)sc(Br)c2C1=O	42.4	76.2	42.1	36	25.9	29.5	40.5	31.3	49.7	37.1	48.7	> 100	48.4	86.5	37.1	72.3	37.8	66.4	> 100
COc1ccc2c(c1)/C(=C\c1c(C)nc3n1CCS3)C(=O)N2	> 100	> 100	13.6	> 100	> 100	11.5	> 100	> 100	98.9	> 100	> 100	> 100	86.3	> 100	> 100	> 100	> 100	> 100	> 100
CC(=O)C(=[N+]=[N-])C(=O)NCC#N	> 10	> 10	> 10	> 10	> 10	> 10	> 10	> 10	> 10	> 10	> 10	> 10	> 10	> 10	> 10	> 10	> 10	> 10	> 10
O=C1CC(NC(=O)C(F)(F)F)c2c1csc2Br (stereo not given)	47.9	6.03	> 100	30.5	> 100	> 100	38.2	> 100	> 100	> 100	> 100	> 100	> 100	> 100	> 100	> 100	> 100	> 100	9.85
CN1CCC2(CC1)SC[C@H]1C(=O)N(c3ccc(Cl)cc3)C(=O)N12	> 100	> 100	> 100	> 100	> 100	> 100	> 100	> 100	> 100	> 100	> 100	> 100	> 100	> 100	> 100	> 100	> 100	> 100	> 100
CCOC(=O)C(C(=O)OCC)=C1NC2(c3ccccc3Nc3ccc(C)cc32)C(C#N)S1 (stereo not given)	27.8	27.7	46.3	72	11.3	23.5	39.5	70.9	58.7	14.2	12.7	4.63	29.5	15.1	26.8	35	12.3	25.8	11.9
Cc1cc(C)nc(NS(=O)(=O)c2ccc(NNc3c4ccccc4nc4c(C(=O)Nc5ccc(S(=O)(=O)Nc6ncccn6)cc5)cccc34)cc2)n1	80.1	52.5	> 100	> 100	51.2	55.3	54.3	65	> 100	66.5	92	76.8	> 100	77.4	83.7	> 100	69.5	73.1	> 100
c1ccc2c(C3CCN(CCN4CCOCC4)C3)c[nH]c2c1 (stereo not given)	> 100	> 100	> 100	> 100	> 100	> 100	> 100	> 100	> 100	> 100	> 100	> 100	> 100	> 100	> 100	> 100	> 100	> 100	> 100
CCOC(=O)C(SCCO)C(C(=O)OCC)n1cnc2c(N)ncnc21 (stereo not given)	29.6	18.6	44.1	15.1	30.4	30.2	38.1	34.3	> 100	13.4	18	23.5	30.8	25.4	24.7	31.2	31.2	14.6	20.1
Nc1nc(Cl)c(N)c(NCC2(CO)CCC2)n1	> 100	> 100	> 100	> 100	> 100	> 100	> 100	> 100	> 100	> 100	> 100	> 100	> 100	> 100	> 100	> 100	> 100	> 100	> 100
